Read-outs that look alike come from different tables or passages of the source.
Assays:
native MDH = target: T1, native MDH (Sus scrofa, UniProt P00346); assay: Native MDH enzymatic activity counter-screen; format: biochemical, pig; conditions: compounds added after refolding and EDTA quench, read-out: Biochemical Assay IC50 Native MDH Activity
T1 construct: soluble pig heart MDH from Roche, product #10127248001; purchased Roche 10127248001; host or cells: pig heart
T1 sequence (P00346 25-338): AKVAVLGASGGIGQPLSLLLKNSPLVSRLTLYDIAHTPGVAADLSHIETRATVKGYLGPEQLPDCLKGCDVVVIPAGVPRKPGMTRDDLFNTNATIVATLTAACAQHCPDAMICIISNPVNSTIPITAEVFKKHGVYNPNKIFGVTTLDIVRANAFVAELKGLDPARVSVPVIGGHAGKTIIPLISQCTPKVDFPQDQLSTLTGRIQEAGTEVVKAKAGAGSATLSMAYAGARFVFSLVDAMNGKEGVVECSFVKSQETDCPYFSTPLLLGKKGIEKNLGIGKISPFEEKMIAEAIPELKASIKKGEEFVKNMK
Method: Counter-screening compounds for inhibition of native MDH enzymatic activity.
Reagent Preparations & Assay Protocol: This assay was performed as described above for the GroEL/ES-dMDH refolding assay; however, the assay protocol differed in the sequence of compound addition to the assay plates. The refolding reactions were allowed to proceed for 45 min at 37° C. in the absence of test compounds (complete refolding of MDH occurs), then quenched with the EDTA stock. Compounds were then pin-transferred into the plates after the EDTA quenching step; thus, compounds effects are only possible by inhibiting the fully-refolded MDH reporter substrate. Next enzymatic activity of the refolded MDH was initiated by addition of 20 μL MDH enzymatic assay stock (20 mM sodium mesoxalate and 2.4 mM NADH in reaction buffer, 50 mM Tris pH 7.4, 50 mM KCl, 1 mM DTT), and followed by measuring the NADH absorbance in each well at 340 nm using a Molecular Devices SpectraMax Plus384 microplate reader
A340 nm measurements were recorded at 0.5 minutes (start point) and at successive time points until the amount of NADH consumed reached ˜90% (end point, generally between 20-35 minutes). Compounds were tested in 8-point, 3-fold dilution series (62.5 μM to 29 nM during the reporter reaction) in clear, flat-bottom 384-well microtiter plates.
DMSO was used as a negative control, and previously discovered native MDH inhibitors were used as positive controls. IC50 values for the test compounds were obtained by plotting the % inhibition results in GraphPad Prism 6 and analyzing by non-linear regression using the log (inhibitor) vs. response (variable slope) equation. Results presented represent the averages of IC50 values obtained from at least quadriplicate (duplicate of duplicate) replicates.

HSP60/10 = target: T2, HSP60/10 (Homo sapiens, UniProt P10809); assay: HSP60/10-mediated dMDH refolding assay; format: biochemical; conditions: 37° C., 1 mM ATP, read-out: Biochemical Assay IC50 HSP60/10-dMDH Refolding
T2 construct: octa-Histidine (His8) tag, TEV-cleavable (N, cleaved yes); made in house; host or cells: HSP60 in Rosetta 2 (DE3) E. coli; HSP10 in Rosetta 2 (DE3) pLysS
Method: (§1) Evaluation of compounds ability to inhibit GroEL/ES and HSP60/10-mediated dMDH refolding assays.
(§2) Reagent preparation: For these assays, four primary reagent stocks were prepared: 1) GroEL/ES-dMDH or HSP60/10-dMDH binary complex stock; 2) ATP initiation stock; 3) EDTA quench stock; 4) MDH enzymatic assay stock. Denatured MDH (dMDH) was prepared by 2-fold dilution of MDH (5 mg/ml, soluble pig heart MDH from Roche, product #10127248001) with denaturant buffer (7 M guanidine-HCl, 200 mM Tris, pH 7.4, and 50 mM DTT). MDH was completely denatured by incubating at room temperature for 45 min. The binary complex solutions were prepared by slowly adding the dMDH stock to a stirring stock with GroEL (or HSP60) in folding buffer (50 mM Tris-HCl, pH 7.4, 50 mM KCl, 10 mM MglC2, and 1 mM DTT), followed by addition of GroES (or HSP10). The binary complex stocks were prepared immediately prior to dispensing into the assay plates and had final protein concentrations of 83.3 nM GroEL (Mr 800 kDa) or HSP60 (Mr 400 kDa), 100 nM GroES or HSP10 (Mr 70 kDa), and 20 nM dMDH in folding buffer. For the ATP initiation stock, ATP solid was diluted into folding buffer to a final concentration of 2.5 mM. Quench solution contained 600 mM EDTA (pH 8.0). The MDH enzymatic assay stock consisted of 20 mM sodium mesoxalate and 2.4 mM NADH in reaction buffer (50 mM Tris-HCl, pH 7.4, 50 mM KC1, and 1 mM DTT).
(§3) Assay Protocol: First, 30 μL aliquots of the GroEL/ES-dMDH or HSP60/10-dMDH binary complex stocks were dispensed into clear, 384-well polystyrene plates. Next, 0.5 μL of the compound stocks (10 mM to 4.6 μM, 3-fold dilutions series in DMSO) were added by pin-transfer (V&P Scientific). The chaperonin-mediated refolding cycles were initiated by addition of 20 IA of ATP stock (reagent concentrations during refolding cycle: 50 nM GroEL or HSP60, 60 nM GroES or HSP10, 12 nM dMDH, 1 mM ATP, and compounds of 100 μM to 46 nM, 3-fold dilution series). The refolding reactions were incubated at 37° C. The incubation time was determined from refolding time-course control experiments until they reached ˜90% completion of refolding cycle — generally ˜20-40 min for GroEL/ES, and ˜40-60 min for HSP60/10). Next, the assay was quenched by addition of 10 μL of the EDTA to final concentration of 100 mM. […] A340 nm measurements were recorded at 0.5 minutes (start point) and at successive time points until the amount of NADH consumed reached ˜90% (end point, generally between 20-35 minutes). The differences between the start and end point A340 values were used to calculate the % inhibition of the GroEL/ES or HSP60/10 machinery by the compounds. IC50 values for the test compounds were obtained by plotting the % inhibition results in GraphPad Prism 6 and analyzing by non-linear regression using the log (inhibitor) vs. response (variable slope) equation. Results presented represent the averages of IC50 values obtained from at least quadriplicate (duplicate of duplicate) replicates. For results, see Tables 1, 2, and 3.

GroEL/ES = target: T3, GroEL/ES (Escherichia coli, UniProt P0A6F5); assay: GroEL/ES-mediated dMDH refolding assay; format: biochemical, E. coli
T3 construct: made in house; host or cells: GroEL in E. coli DH5a; GroES in E. coli BL21 (DE3)
Method: as §1, §2, §3

T3 sequence (P0A6F5 2-548): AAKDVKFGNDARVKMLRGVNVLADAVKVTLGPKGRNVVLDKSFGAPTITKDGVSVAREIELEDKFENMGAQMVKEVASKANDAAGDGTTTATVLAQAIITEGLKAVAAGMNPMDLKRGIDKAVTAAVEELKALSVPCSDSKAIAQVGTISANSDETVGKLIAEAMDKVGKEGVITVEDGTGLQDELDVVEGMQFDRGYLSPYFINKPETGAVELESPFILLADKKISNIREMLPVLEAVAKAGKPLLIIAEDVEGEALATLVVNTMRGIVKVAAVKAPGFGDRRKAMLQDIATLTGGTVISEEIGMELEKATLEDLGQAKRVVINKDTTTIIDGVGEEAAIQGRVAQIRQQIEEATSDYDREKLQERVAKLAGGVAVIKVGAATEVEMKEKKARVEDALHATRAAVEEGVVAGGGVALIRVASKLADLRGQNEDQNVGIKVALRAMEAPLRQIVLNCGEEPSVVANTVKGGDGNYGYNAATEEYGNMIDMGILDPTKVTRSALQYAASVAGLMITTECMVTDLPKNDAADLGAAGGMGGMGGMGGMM
T2 sequence (P10809 27-573): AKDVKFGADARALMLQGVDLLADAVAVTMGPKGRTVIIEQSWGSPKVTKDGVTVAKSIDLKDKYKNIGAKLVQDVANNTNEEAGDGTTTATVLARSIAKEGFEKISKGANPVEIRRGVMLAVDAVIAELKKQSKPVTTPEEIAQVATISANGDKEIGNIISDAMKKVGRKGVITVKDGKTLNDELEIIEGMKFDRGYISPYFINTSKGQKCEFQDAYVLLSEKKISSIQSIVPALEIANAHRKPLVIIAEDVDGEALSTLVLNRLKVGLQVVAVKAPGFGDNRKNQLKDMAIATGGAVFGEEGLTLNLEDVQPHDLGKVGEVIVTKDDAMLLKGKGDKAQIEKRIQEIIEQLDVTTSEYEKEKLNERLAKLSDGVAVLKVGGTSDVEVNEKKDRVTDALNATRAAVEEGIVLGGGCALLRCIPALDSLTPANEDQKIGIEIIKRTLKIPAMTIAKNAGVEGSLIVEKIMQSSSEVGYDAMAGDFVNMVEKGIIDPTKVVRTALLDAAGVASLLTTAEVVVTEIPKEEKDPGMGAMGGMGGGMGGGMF

## Cc1cc(C(C#N)c2ccc(Cl)cc2)c(Cl)cc1NC(=O)c1cc(I)cc(I)c1O (centres unmarked) [Closantel, reference compound]
Native MDH; Table 1
  IC50: 6 µM
HSP60/10; Table 1
  IC50: 3 µM

## O=C(Nc1ccc(Sc2nc3ccccc3s2)c(Cl)c1)c1cc(Br)cc(Br)c1O [Compound 1, reference compound]
Native MDH; Table 1
  IC50: 6.3 µM
GroEL/ES
  IC50: 2 µM
HSP60/10; Table 1
  IC50: 3.7 µM

## COc1c(Br)cc(Br)cc1C(=O)Nc1cc(Cl)c(C(C#N)c2ccc(Cl)cc2)cc1C (centres unmarked) [Compound 45, 3,5-dibromo-N-(5-chloro-4-((4-chlorophenyl)(cyano)methyl)-2-methylphenyl)-2-methoxybenzamide]
Native MDH; Table 2
  IC50: > 63 µM
GroEL/ES
  IC50: 30 µM
HSP60/10; Table 2
  IC50: > 100 µM

## Cc1cc(C(C#N)c2ccc(Cl)cc2)c(Cl)cc1NC(=O)c1cc(Br)cc(Br)c1O (centres unmarked) [Compound 46, 3,5-dibromo-N-(5-chloro-4-((4-chlorophenyl)(cyano)methyl)-2-methylphenyl)-2-hydroxybenzamide]
Native MDH; Table 2
  IC50: 2.3 µM
GroEL/ES
  IC50: 1.9 µM
HSP60/10; Table 2
  IC50: 2.4 µM

## COc1c(Br)cccc1C(=O)Nc1cc(Cl)c(C(C#N)c2ccc(Cl)cc2)cc1C (centres unmarked) [Compound 47, 3-bromo-N-(5-chloro-4-((4-chlorophenyl)(cyano)methyl)-2-methylphenyl)-2-methoxybenzamide]
Native MDH; Table 2
  IC50: > 63 µM
GroEL/ES
  IC50: 49 µM
HSP60/10; Table 2
  IC50: > 100 µM

## Cc1cc(C(C#N)c2ccc(Cl)cc2)c(Cl)cc1NC(=O)c1cccc(Br)c1O (centres unmarked) [Compound 48, 3-bromo-N-(5-chloro-4-((4-chlorophenyl)(cyano)methyl)-2-methylphenyl)-2-hydroxybenzamide]
Native MDH; Table 2
  IC50: 48 µM
GroEL/ES
  IC50: 12 µM
HSP60/10; Table 2
  IC50: 7.7 µM

## COc1ccc(Br)cc1C(=O)Nc1cc(Cl)c(C(C#N)c2ccc(Cl)cc2)cc1C (centres unmarked) [Compound 49, 5-bromo-N-(5-chloro-4-((4-chlorophenyl)(cyano)methyl)-2-methylphenyl)-2-methoxybenzamide]
Native MDH; Table 2
  IC50: > 63 µM
GroEL/ES
  IC50: 71 µM
HSP60/10; Table 2
  IC50: > 100 µM

## Cc1cc(C(C#N)c2ccc(Cl)cc2)c(Cl)cc1NC(=O)c1cc(Br)ccc1O (centres unmarked) [Compound 50, 5-bromo-N-(5-chloro-4-((4-chlorophenyl)(cyano)methyl)-2-methylphenyl)-2-hydroxybenzamide]
Native MDH; Table 2
  IC50: 55 µM
GroEL/ES
  IC50: 23 µM
HSP60/10; Table 2
  IC50: 20 µM

## COc1c(Cl)cc(Cl)cc1C(=O)Nc1cc(Cl)c(C(C#N)c2ccc(Cl)cc2)cc1C (centres unmarked) [Compound 51, 3,5-dichloro-N-(5-chloro-4-((4-chlorophenyl)(cyano)methyl)-2-methylphenyl)-2-methoxybenzamide]
Native MDH; Table 2
  IC50: > 63 µM
GroEL/ES
  IC50: 38 µM
HSP60/10; Table 2
  IC50: 86 µM

## Cc1cc(C(C#N)c2ccc(Cl)cc2)c(Cl)cc1NC(=O)c1cc(Cl)cc(Cl)c1O (centres unmarked) [Compound 52, 3,5-dichloro-N-(5-chloro-4-((4-chlorophenyl)(cyano)methyl)-2-methylphenyl)-2-hydroxybenzamide]
Native MDH; Table 2
  IC50: 5.5 µM
GroEL/ES
  IC50: 3.7 µM
HSP60/10; Table 2
  IC50: 5.2 µM

## COc1c(Cl)cccc1C(=O)Nc1cc(Cl)c(C(C#N)c2ccc(Cl)cc2)cc1C (centres unmarked) [Compound 53, 3-chloro-N-(5-chloro-4-((4-chlorophenyl)(cyano)methyl)-2-methylphenyl)-2-methoxybenzamide]
Native MDH; Table 2
  IC50: > 63 µM
GroEL/ES
  IC50: 81 µM
HSP60/10; Table 2
  IC50: > 100 µM

## Cc1cc(C(C#N)c2ccc(Cl)cc2)c(Cl)cc1NC(=O)c1cccc(Cl)c1O (centres unmarked) [Compound 54, 3-chloro-N-(5-chloro-4-((4-chlorophenyl)(cyano)methyl)-2-methylphenyl)-2-hydroxybenzamide]
Native MDH; Table 2
  IC50: 57 µM
GroEL/ES
  IC50: 14 µM
HSP60/10; Table 2
  IC50: 6.4 µM

## COc1cc(Cl)ccc1C(=O)Nc1cc(Cl)c(C(C#N)c2ccc(Cl)cc2)cc1C (centres unmarked) [Compound 55, 4-chloro-N-(5-chloro-4-((4-chlorophenyl)(cyano)methyl)-2-methylphenyl)-2-methoxybenzamide]
Native MDH; Table 2
  IC50: > 63 µM
GroEL/ES
  IC50: 59 µM
HSP60/10; Table 2
  IC50: > 100 µM

## Cc1cc(C(C#N)c2ccc(Cl)cc2)c(Cl)cc1NC(=O)c1ccc(Cl)cc1O (centres unmarked) [Compound 56, 4-chloro-N-(5-chloro-4-((4-chlorophenyl)(cyano)methyl)-2-methylphenyl)-2-hydroxybenzamide]
Native MDH; Table 2
  IC50: 59 µM
GroEL/ES
  IC50: 57 µM
HSP60/10; Table 2
  IC50: 17 µM

## COc1ccc(Cl)cc1C(=O)Nc1cc(Cl)c(C(C#N)c2ccc(Cl)cc2)cc1C (centres unmarked) [Compound 57, 5-chloro-N-(5-chloro-4-((4-chlorophenyl)(cyano)methyl)-2-methylphenyl)-2-methoxybenzamide]
Native MDH; Table 2
  IC50: > 63 µM
Native MDH; Table 3
  IC50: > 63 µM
GroEL/ES
  IC50: 59 µM
HSP60/10; Table 2
  IC50: > 100 µM
HSP60/10; Table 3
  IC50: > 100 µM

## Cc1cc(C(C#N)c2ccc(Cl)cc2)c(Cl)cc1NC(=O)c1cc(Cl)ccc1O (centres unmarked) [Compound 58, 5-chloro-N-(5-chloro-4-((4-chlorophenyl)(cyano)methyl)-2-methylphenyl)-2-hydroxybenzamide]
Native MDH; Table 2
  IC50: > 63 µM
Native MDH; Table 3
  IC50: > 63 µM
GroEL/ES
  IC50: 24 µM
HSP60/10; Table 2
  IC50: 40 µM

## COc1ccc(C)cc1C(=O)Nc1cc(Cl)c(C(C#N)c2ccc(Cl)cc2)cc1C (centres unmarked) [Compound 59, N-(5-chloro-4-((4-chlorophenyl)(cyano)methyl)-2-methylphenyl)-2-methoxy-5-methylbenzamide]
Native MDH; Table 2
  IC50: > 63 µM
GroEL/ES
  IC50: 86 µM
HSP60/10; Table 2
  IC50: > 100 µM
